Data taken from paper PMC3961306, “Comparison of the Cancer Gene Targeting and Biochemical Selectivities of All Targeted Kinase Inhibitors Approved for Clinical Use” (PLoS ONE, 2014).
Where two headings read alike, the source gives them in different places.

Tests used:
[1] = test system: forty-four human cancer cell lines; assay: Cell proliferation assay (ATPlite, 72 hours) in the 44 cell line Oncolines panel; assay type: cell-based; settings: Homo sapiens
[2] = biological target: T1, panel of more than 300 wild-type and mutant kinases (313 kinase panel) (Homo sapiens, UniProt O14920); assay: Kinase profiling in a biochemical assay panel (mobility shift assays and ELISA), %-inhibition at 1 μM; selectivity entropy; settings: kinase IKKβ; compound at 1 μM
T1 sequence (O14920 1-756): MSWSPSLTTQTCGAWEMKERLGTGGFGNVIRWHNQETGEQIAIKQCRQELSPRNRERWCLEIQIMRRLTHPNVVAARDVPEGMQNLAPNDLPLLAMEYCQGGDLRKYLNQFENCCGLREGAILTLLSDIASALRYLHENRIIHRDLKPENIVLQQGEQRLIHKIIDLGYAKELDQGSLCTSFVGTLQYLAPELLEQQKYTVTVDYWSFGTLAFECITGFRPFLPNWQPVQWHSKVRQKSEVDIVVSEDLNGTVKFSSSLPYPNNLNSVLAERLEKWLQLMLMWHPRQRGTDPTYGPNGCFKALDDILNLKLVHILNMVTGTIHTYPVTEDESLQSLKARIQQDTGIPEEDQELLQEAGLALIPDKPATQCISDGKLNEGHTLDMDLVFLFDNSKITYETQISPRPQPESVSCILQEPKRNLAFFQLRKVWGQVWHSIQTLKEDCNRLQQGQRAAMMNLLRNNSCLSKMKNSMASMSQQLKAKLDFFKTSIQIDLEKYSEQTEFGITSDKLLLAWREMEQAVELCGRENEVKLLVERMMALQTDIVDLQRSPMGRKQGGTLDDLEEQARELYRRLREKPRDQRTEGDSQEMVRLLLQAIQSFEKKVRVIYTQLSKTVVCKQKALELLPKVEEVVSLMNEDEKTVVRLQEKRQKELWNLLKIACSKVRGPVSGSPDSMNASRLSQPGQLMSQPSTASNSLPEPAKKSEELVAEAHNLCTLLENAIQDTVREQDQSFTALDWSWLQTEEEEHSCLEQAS

[3] = biological target: panel of more than 300 wild-type and mutant kinases (313 kinase panel) (Homo sapiens, UniProt O95819); assay: as above; settings: kinase HGK; compound at 1 μM
[4] = biological target: panel of more than 300 wild-type and mutant kinases (313 kinase panel) (Homo sapiens, UniProt Q9H2G2); assay: as above; settings: kinase SLK; 1 μM
[5] = biological target: panel of more than 300 wild-type and mutant kinases (313 kinase panel) (Homo sapiens, UniProt Q16288); assay: as above; settings: kinase TRKC; 1 μM
[6] = biological target: panel of more than 300 wild-type and mutant kinases (313 kinase panel) (Homo sapiens, UniProt Q15303); assay: as above; settings: kinase HER4; compound at 1 μM
[7] = biological target: T2, panel of more than 300 wild-type and mutant kinases (313 kinase panel) (Homo sapiens, UniProt Q96PF2); assay: as above; settings: kinase TSSK2; 1 μM
T2 sequence (Q96PF2 1-358): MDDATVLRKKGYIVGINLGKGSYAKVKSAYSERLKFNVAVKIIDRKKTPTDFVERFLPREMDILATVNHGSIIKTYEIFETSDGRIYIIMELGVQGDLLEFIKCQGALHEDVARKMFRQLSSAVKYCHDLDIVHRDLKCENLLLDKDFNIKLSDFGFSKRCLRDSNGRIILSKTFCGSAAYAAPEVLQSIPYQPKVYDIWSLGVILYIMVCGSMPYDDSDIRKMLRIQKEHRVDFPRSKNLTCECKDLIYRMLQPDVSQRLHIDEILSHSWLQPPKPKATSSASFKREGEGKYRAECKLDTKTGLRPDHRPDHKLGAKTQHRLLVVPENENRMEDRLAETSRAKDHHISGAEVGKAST

[8] = biological target: panel of more than 300 wild-type and mutant kinases (313 kinase panel) (Homo sapiens, UniProt Q9H1R3); assay: as above; settings: kinase skMLCK; 1 μM
[9] = biological target: panel of more than 300 wild-type and mutant kinases (313 kinase panel) (Homo sapiens, UniProt P29376); assay: as above; settings: kinase LTK; compound at 1 μM

Sequence of panel of more than 300 wild-type and mutant kinases (313 kinase panel) (Homo sapiens, UniProt Q15303) (Q15303 26-1308, change not shown): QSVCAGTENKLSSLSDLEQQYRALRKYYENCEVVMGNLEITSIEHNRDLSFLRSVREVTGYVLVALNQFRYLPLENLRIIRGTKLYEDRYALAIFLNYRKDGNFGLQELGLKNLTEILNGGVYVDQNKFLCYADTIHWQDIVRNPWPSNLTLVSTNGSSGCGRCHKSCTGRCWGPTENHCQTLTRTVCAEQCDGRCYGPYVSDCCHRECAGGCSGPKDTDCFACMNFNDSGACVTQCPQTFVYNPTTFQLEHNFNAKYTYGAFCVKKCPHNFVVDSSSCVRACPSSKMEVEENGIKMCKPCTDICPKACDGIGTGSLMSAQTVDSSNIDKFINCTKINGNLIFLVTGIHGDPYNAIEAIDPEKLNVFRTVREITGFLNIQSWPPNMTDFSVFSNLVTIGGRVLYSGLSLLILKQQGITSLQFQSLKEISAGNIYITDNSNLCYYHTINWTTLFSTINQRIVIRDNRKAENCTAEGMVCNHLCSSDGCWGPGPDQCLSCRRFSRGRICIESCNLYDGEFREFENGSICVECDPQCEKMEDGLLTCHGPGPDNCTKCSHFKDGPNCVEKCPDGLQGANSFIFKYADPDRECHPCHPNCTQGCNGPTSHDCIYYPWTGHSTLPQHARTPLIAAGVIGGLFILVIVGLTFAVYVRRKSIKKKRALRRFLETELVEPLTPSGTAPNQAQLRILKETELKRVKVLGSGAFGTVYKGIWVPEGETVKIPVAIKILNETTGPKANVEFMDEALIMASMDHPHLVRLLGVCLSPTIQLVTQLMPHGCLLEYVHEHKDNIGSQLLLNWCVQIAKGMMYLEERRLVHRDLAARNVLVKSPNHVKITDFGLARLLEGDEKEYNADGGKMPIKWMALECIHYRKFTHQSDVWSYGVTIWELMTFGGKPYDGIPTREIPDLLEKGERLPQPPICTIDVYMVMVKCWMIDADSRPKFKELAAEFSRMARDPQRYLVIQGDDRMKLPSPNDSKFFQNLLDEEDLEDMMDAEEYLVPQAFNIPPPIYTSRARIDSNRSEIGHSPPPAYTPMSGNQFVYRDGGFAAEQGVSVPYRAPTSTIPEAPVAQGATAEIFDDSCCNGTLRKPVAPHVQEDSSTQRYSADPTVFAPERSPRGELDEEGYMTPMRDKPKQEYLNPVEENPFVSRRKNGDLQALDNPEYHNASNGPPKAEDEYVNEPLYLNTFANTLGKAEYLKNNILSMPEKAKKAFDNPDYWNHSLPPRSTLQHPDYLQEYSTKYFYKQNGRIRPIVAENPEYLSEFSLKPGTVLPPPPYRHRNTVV

**Q.** Which results are given for `CC(C)(C)c1nc(-c2cccc(NS(=O)(=O)c3c(F)cccc3F)c2F)c(-c2ccnc(N)n2)s1` [dabrafenib]?
**A.** IC50 ([1]; A 172, read-out: cell panel IC50, A-172): 3.5 µM; IC50 ([1]; A204, cell line A-204, read-out: cell panel IC50, A-204): 4.69 µM; IC50 ([1]; A498, read-out: cell panel IC50, A-498): 2.28 µM; IC50 ([1]; A549, read-out: cell panel IC50, A-549): 4.12 µM; IC50 ([1]; A-375, cell line A375, read-out: cell panel IC50, A375): 0.026 µM; IC50 ([1]; A-427, read-out: cell panel IC50, A-427): 3.45 µM; IC50 ([1]; AU565, read-out: cell panel IC50, AU-565): 5.92 µM; IC50 ([1]; BT-549, read-out: cell panel IC50, BT-549): 5.73 µM; IC50 ([1]; HCT-116, read-out: cell panel IC50, HCT-116): 0.85 µM; IC50 ([1]; K562, read-out: cell panel IC50, K-562): 13.5 µM; IC50 ([1]; LS174T, read-out: cell panel IC50, LS 174T): > 31.6 µM; IC50 ([1]; SHP77, cell line SHP-77, read-out: cell panel IC50, SHP-77): 28.9 µM; IC50 ([1]; SW-620, cell line SW620, read-out: cell panel IC50, SW620): 2.47 µM; IC50 ([1]; U2OS, cell line U-2 OS, read-out: cell panel IC50, U-2 OS): > 31.6 µM; IC50 ([1]; cell line J82, read-out: cell panel IC50, J82): > 31.6 µM; IC50 ([1]; cell line PA-1, read-out: cell panel IC50, PA-1): 2.11 µM; IC50 ([1]; cell line SJCRH30, read-out: cell panel IC50, SJCRH30): > 31.6 µM; IC50 ([1]; cell line SR, read-out: cell panel IC50, SR): 2.12 µM; IC50 ([1]; U-87 MG cell line, ATPlite, 72 hours, read-out: IC50 in cell proliferation assay (table S5 cellpanel data)): > 31.6 µM; IC50 ([1]; cell line 769-P, read-out: cell panel IC50, 769-P): 10.9 µM; IC50 ([1]; cell line 786-0, read-out: cell panel IC50, 786-0): 3.3 µM; IC50 ([1]; cell line ACHN, read-out: cell panel IC50, ACHN): 1.15 µM; IC50 ([1]; cell line AN3 CA, read-out: cell panel IC50, AN3 CA): > 31.6 µM; IC50 ([1]; cell line BT-20, read-out: cell panel IC50, BT-20): > 31.6 µM; IC50 ([1]; cell line BxPC-3, read-out: cell panel IC50, BxPC-3): 2.68 µM; IC50 ([1]; cell line C-33 A, read-out: cell panel IC50, C-33 A): 3.31 µM; IC50 ([1]; cell line CAL 27, read-out: cell panel IC50, CAL 27): 30.8 µM; IC50 ([1]; cell line CCRF-CEM, read-out: cell panel IC50, CCRF-CEM): > 31.6 µM; IC50 ([1]; cell line DLD-1, read-out: cell panel IC50, DLD-1): 3.92 µM; IC50 ([1]; cell line FaDu, read-out: cell panel IC50, FaDu): 4.38 µM; IC50 ([1]; cell line HCT-15, read-out: cell panel IC50, HCT-15): 3.33 µM; IC50 ([1]; cell line Hs 578T, read-out: cell panel IC50, Hs 578T): 11.5 µM; IC50 ([1]; cell line Jurkat E6.1, read-out: cell panel IC50, Jurkat E6.1): 3.12 µM; IC50 ([1]; cell line LoVo, read-out: cell panel IC50, LoVo): 1.86 µM; IC50 ([1]; cell line MG-63, read-out: cell panel IC50, MG-63): > 31.6 µM; IC50 ([1]; cell line MOLT-4, read-out: cell panel IC50, MOLT-4): 29.1 µM; IC50 ([1]; cell line MeWo, read-out: cell panel IC50, MeWo): 6.49 µM; IC50 ([1]; cell line NCI-H82, read-out: cell panel IC50, NCI-H82): 2.54 µM; IC50 ([1]; cell line NCI-H460, read-out: cell panel IC50, NCI-H460): 2.98 µM; IC50 ([1]; cell line OVCAR-3, read-out: cell panel IC50, OVCAR-3): 5.26 µM; IC50 ([1]; cell line RPMI-7951, read-out: cell panel IC50, RPMI-7951): 0.024 µM; IC50 ([1]; cell line SK-N-AS, read-out: cell panel IC50, SK-N-AS): 3.55 µM; IC50 ([1]; cell line SW48, read-out: cell panel IC50, SW48): 10.6 µM; IC50 ([1]; cell line SW480, read-out: cell panel IC50, SW480): 16.6 µM; %-inhibition of IKKβ [2]: 3.71%; %-inhibition of HGK [3]: 7%; %-inhibition of SLK [4]: 12%; %-inhibition of TRKC [5]: 81%; %-inhibition of HER4 [6]: 23%; %-inhibition of TSSK2 [7]: -1.73%; %-inhibition of skMLCK [8]: 0.52%; %-inhibition of LTK [9]: 2.67%
